According to paper PMC6730478, “Discovery of N-(2-Aminophenyl)-4-(bis(2-chloroethyl)amino)Benzamide as a Potent Histone Deacetylase Inhibitor” (Frontiers in Pharmacology, 2019):

Assays:
HDAC1 = target: T1, HDAC1 (Homo sapiens, UniProt Q13547); assay: In vitro HDAC inhibitory assay (fluorogenic substrate); format: biochemical
T1 construct: purchased BPS Bioscience
Description: (§1) All of the HDAC enzymes were bought from BPS Bioscience. In vitro HDAC inhibition assays were conducted as previously described. Briefly, 20 μl of recombinant HDAC enzyme solution (HDAC1−9) was mixed with various concentrations of tested compound (20 μl). The mixture was incubated at 30°C for 1 h (for the time-dependent assay, the mixture was incubated for 15, 30, 60, and 90 min, respectively), and then 10 μl of fluorogenic substrate (Boc-Lys (acetyl)-AMC (3 mM) for HDAC1, 2, 3, and 6, Boc-Lys (trifluoroacetyl)-AMC (3 mM) for HDAC 4, 7, 8, and 9) was added. After incubation at 30°C for 2 h, the catalytic reaction was stopped by addition of 10 μl of developer containing trypsin and trichostatin A (TSA). After 30 min, fluorescence intensity was measured using a microplate reader at excitation and emission wavelengths of 360 and 460 nm, respectively. The inhibition ratios were calculated from the fluorescence intensity readings of tested wells relative to those of control wells, and the IC50 curves and values were determined by GraphPad Prism 6.0 software.

HDAC7 = target: T2, HDAC7 (Homo sapiens, UniProt Q8WUI4); assay: as above; format: biochemical; details: n ≥ 2, SD <10% of the mean; read-out: Enzyme inhibitory activity IC50, HDAC7
T2 construct: purchased BPS Bioscience
Description: as §1

HDAC2 = target: T3, HDAC2 (Homo sapiens, UniProt Q92769); assay: biochemical; details: n ≥ 2, SD <10% of the mean; read-out: Enzyme inhibitory activity IC50, HDAC2
T3 construct: purchased BPS Bioscience
T3 sequence (Q92769 whole entry): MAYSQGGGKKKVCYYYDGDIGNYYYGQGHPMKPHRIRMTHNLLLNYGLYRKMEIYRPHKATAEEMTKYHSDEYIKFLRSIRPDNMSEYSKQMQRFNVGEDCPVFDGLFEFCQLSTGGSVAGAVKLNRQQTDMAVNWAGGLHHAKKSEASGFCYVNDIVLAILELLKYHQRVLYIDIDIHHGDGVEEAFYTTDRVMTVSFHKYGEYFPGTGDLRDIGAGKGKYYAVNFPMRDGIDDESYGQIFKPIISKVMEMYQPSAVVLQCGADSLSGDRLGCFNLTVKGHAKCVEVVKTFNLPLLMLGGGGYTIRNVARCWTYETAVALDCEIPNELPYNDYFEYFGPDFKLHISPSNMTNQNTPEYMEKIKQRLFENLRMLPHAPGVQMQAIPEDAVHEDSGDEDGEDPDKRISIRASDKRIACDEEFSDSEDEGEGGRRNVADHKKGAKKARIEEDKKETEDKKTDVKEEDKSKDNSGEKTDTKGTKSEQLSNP
Description: as §1

HDAC3 = target: T4, HDAC3 (Homo sapiens, UniProt O15379); assay: biochemical; details: n ≥ 2, SD <10% of the mean; read-out: Enzyme inhibitory activity IC50, HDAC3
T4 construct: purchased BPS Bioscience
Description: as §1

HDAC4 = target: T5, HDAC4 (Homo sapiens, UniProt P56524); assay: biochemical
T5 construct: purchased BPS Bioscience
T5 sequence (P56524 whole entry): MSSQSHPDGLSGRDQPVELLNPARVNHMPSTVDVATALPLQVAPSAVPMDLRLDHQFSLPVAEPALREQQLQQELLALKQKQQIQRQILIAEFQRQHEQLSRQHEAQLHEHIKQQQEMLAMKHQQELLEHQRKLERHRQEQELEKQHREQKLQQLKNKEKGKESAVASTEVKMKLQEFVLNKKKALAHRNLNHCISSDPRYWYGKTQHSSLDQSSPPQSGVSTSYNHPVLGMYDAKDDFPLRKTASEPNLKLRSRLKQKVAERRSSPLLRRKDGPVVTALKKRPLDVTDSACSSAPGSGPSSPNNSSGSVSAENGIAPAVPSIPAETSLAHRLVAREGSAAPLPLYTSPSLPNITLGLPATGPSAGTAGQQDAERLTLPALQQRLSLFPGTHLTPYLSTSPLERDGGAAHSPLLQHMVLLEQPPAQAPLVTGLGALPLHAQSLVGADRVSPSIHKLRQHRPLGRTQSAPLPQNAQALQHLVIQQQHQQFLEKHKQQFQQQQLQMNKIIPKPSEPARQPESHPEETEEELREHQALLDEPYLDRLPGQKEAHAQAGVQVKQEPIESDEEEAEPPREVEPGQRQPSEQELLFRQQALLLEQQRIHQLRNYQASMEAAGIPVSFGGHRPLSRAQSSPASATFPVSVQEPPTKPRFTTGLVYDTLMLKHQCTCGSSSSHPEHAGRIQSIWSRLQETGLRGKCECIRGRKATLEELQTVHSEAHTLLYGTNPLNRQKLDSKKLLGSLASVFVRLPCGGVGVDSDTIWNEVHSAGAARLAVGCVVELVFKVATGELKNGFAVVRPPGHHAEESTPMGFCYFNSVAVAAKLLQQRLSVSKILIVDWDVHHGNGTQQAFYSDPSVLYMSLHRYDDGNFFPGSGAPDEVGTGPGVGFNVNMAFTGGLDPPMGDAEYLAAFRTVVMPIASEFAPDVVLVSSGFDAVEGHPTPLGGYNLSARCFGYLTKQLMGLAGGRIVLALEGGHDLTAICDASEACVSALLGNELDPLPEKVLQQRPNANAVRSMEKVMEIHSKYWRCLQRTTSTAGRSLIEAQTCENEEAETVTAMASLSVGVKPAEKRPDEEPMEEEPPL
Description: as §1

HDAC6 = target: T6, HDAC6 (Homo sapiens, UniProt Q9UBN7); assay: biochemical
T6 construct: purchased BPS Bioscience
T6 sequence (Q9UBN7 whole entry): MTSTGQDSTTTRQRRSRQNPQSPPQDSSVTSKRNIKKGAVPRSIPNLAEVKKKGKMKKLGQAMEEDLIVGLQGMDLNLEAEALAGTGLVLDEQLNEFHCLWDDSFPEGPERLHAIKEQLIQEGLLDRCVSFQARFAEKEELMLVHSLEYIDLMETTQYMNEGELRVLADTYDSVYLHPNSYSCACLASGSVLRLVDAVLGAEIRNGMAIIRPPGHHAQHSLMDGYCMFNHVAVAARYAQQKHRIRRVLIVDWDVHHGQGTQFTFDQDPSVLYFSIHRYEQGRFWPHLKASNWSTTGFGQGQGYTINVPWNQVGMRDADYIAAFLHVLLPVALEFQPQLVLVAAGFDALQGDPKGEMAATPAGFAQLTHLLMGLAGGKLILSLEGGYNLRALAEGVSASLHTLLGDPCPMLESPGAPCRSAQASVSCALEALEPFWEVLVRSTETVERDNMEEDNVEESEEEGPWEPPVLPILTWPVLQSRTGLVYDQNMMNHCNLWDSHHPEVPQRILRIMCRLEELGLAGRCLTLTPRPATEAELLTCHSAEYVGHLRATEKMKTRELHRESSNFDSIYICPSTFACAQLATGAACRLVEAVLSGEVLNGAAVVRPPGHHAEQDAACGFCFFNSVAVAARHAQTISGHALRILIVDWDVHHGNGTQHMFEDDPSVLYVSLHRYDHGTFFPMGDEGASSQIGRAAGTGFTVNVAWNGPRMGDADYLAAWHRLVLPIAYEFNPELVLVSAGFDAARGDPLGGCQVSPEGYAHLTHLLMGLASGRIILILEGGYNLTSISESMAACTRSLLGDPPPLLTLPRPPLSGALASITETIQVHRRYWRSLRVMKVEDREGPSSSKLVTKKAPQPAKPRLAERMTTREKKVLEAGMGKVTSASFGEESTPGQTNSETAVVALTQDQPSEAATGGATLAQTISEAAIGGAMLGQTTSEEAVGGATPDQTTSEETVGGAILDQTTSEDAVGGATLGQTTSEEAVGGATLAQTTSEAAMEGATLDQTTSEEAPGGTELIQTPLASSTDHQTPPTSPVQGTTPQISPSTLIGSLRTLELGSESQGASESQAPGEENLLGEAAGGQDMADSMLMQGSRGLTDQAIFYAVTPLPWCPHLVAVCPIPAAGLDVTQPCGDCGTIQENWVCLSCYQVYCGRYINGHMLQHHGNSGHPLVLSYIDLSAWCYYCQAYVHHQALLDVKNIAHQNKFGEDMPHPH
Description: as §1

HDAC8 = target: T7, HDAC8 (Homo sapiens, UniProt Q9BY41); assay: biochemical
T7 construct: purchased BPS Bioscience
T7 sequence (Q9BY41 whole entry): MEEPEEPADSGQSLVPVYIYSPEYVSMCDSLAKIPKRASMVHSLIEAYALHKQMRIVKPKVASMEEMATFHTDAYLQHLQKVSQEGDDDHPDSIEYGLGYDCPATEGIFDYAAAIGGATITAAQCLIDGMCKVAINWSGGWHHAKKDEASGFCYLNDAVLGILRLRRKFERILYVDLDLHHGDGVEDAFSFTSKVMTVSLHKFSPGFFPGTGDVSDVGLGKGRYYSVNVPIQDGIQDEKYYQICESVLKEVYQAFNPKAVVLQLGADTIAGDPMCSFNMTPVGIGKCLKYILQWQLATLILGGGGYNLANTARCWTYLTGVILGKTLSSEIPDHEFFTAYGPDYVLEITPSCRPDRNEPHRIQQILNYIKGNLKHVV
Description: as §1

HDAC9 = target: T8, HDAC9 (Homo sapiens, UniProt Q9UKV0); assay: biochemical
T8 construct: purchased BPS Bioscience
T8 sequence (Q9UKV0 whole entry): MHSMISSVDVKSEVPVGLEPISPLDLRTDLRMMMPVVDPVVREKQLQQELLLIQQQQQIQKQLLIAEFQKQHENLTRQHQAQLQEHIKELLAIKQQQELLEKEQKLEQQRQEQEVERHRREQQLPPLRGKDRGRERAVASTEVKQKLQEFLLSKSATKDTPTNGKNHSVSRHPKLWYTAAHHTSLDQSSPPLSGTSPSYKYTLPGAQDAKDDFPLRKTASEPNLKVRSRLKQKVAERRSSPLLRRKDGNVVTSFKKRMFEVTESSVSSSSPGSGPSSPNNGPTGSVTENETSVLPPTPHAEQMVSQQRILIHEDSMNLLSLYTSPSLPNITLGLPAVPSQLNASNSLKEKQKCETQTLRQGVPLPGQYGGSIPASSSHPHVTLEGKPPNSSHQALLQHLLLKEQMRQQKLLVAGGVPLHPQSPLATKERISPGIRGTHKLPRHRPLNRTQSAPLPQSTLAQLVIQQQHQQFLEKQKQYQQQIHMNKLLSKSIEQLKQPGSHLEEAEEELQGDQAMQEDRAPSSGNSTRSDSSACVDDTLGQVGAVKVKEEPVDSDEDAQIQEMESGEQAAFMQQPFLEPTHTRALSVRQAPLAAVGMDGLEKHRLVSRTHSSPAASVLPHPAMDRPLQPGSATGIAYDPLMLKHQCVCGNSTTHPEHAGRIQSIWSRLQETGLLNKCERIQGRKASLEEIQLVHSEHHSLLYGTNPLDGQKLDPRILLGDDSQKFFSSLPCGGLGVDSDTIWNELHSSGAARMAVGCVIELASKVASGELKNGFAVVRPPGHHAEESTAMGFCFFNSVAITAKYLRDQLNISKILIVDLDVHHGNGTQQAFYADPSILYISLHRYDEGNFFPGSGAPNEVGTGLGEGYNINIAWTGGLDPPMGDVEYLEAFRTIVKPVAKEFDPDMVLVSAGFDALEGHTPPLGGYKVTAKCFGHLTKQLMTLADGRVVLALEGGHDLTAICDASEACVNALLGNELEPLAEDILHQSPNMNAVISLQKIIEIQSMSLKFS
Description: as §1

A2780 cells = assay: MTT antiproliferative assay; format: cell-based; details: for IC50: Homo sapiens, A2780, 48 h, read-out: Antiproliferative activity IC50, A2780
Description: . The stock solutions of tested compounds were diluted with culture medium. The cells were seeded in 96-well plates at a density 5 × 10^3 cells per well and incubated until confluency of 90–95%, and then each well was treated with 100 µl of medium containing the desired concentrations of tested compounds and incubated for 48 h. MTT working solution of 20 µl (5 mg/ml) was then added to each well and incubated for another 4 h. At the end of incubation, the medium were carefully removed, and 200 µl of DMSO was added. The optical density at 490 and 630 nm was then measured with a microplate reader (Model 680, Bio-Rad). […] The IC50 values were calculated with Origin 7.5 software, and standard deviations of the IC50 values were obtained from at least three independent experiments.

A549 cells = assay: MTT antiproliferative assay; format: cell-based; details: Homo sapiens, A549, 48 h, read-out: Antiproliferative activity IC50, A549
Description: (§2) The stock solutions of tested compounds were diluted with culture medium. […] MTT working solution of 20 µl (5 mg/ml) was then added to each well and incubated for another 4 h. At the end of incubation, the medium were carefully removed, and 200 µl of DMSO was added. The optical density at 490 and 630 nm was then measured with a microplate reader (Model 680, Bio-Rad). […] The IC50 values were calculated with Origin 7.5 software, and standard deviations of the IC50 values were obtained from at least three independent experiments.

Calu-3 cells = assay: MTT antiproliferative assay; format: cell-based; details: Homo sapiens, Calu-3, 48 h, read-out: Antiproliferative activity IC50, Calu-3
Description: as §2

Colo205 cells = assay: MTT antiproliferative assay; format: cell-based; details: Homo sapiens, COLO 205, 48 h, read-out: Antiproliferative activity IC50, Colo205
Description: as §2

HepG2 cells [1] = assay: MTT antiproliferative assay; format: cell-based
Description: as §2

LoVo cells = assay: MTT antiproliferative assay; format: cell-based; details: Homo sapiens, 48 h, read-out: Antiproliferative activity IC50, LoVo
Description: as §2

MCF-7 cells = assay: MTT antiproliferative assay; format: cell-based; details: Homo sapiens, MCF7, 48 h, read-out: Antiproliferative activity IC50, MCF-7
Description: as §2

MDA-MB-231 cells = assay: MTT antiproliferative assay; format: cell-based; details: Homo sapiens, MDA-MB-231, 48 h, read-out: Antiproliferative activity IC50, MDA-MB-231
Description: as §2

MDA-MB-468 cells = assay: MTT antiproliferative assay; format: cell-based; details: Homo sapiens, MDA-MB-468, 48 h, read-out: Antiproliferative activity IC50, MDA-MB-468
Description: as §2

MKN45 cells = assay: MTT antiproliferative assay; format: cell-based; details: Homo sapiens, MKN-45, 48 h, read-out: Antiproliferative activity IC50, MKN45
Description: as §2

PNAC-1 cells = assay: MTT antiproliferative assay; format: cell-based; details: 48 h, read-out: Antiproliferative activity IC50, PNAC-1
Description: as §2

SKOV3 cells = assay: MTT antiproliferative assay; format: cell-based; details: Homo sapiens, SK-OV-3, 48 h, read-out: Antiproliferative activity IC50, SKOV3
Description: as §2

U937 cells = assay: MTT antiproliferative assay; format: cell-based; details: Homo sapiens, U-937, 48 h, read-out: Antiproliferative activity IC50, U937
Description: as §2

HepG2 cells [2] = assay: Cell cycle assay (PI staining, flow cytometry); format: cell-based; details: 6 h; for HepG2 cells at the G2/M phase: control 21.24%; for HepG2 cell population at the G0/G1 phase: control 55.60%
Description: Cells were then washed twice with cold phosphate-buffered saline (PBS) and fixed in 70% precooled ethanol at 4°C for 12 h. After the fixation, cells were washed again with PBS and stained with PI/RNase A for 30 min at room temperature and eventually subjected to flow cytometry (CytoFLEX, Beckman Coulter) for cell cycle distribution determination.

HepG2 cells [3] = assay: Annexin V-FITC/PI apoptosis detection (flow cytometry); format: cell-based; details: 24 h, control 3.52%
Description: Cells were then washed with PBS, collected, resuspended with binding buffer from the annexin V-FITC kit (Thermo Fisher Co., USA) and then added with 5 µl of annexin V-FITC and mixed gently. After 10 min of incubation, 1 µl of PI was added to each sample and mixed gently. After incubation at room temperature for another 20 min in the dark, cells were subjected to flow cytometry (CytoFLEX, Beckman Coulter).

cleaved caspase-3 = assay: Western blot in HepG2 cells; format: cell-based; details: 1 µM, 24 h, compared with SAHA
Description: (§3) Protein sample concentrations were determined with Brandford assay. Thirty micrograms of each sample was subjected to sodium dodecyl sulfate–polyacrylamide gel electrophoresis (SDS-PAGE). After electrophoresis, proteins were transferred to polyvinylidene difluoride (PVDF) membrane (Millipore) and blocked with 5% fat-free dry milk in 1 × Tris-buffered saline (TBST) for 2 h at room temperature. Membranes were then probed with corresponding antibodies at 4°C overnight. Cleaved caspase-3 (#9661), caspase-3 (#9662), cleaved caspase-9 (#9505), caspase-9 (#9508), phospho-cdc2 (#4539), and cdc2 (#77055) antibodies were obtained from Cell Signaling Technology (Danvers, MA). Expression of human β-actin was detected with anti-β-actin antibody (Proteintech, Rosemont, IL) as a loading control. The membranes were then incubated with horseradish peroxidase (HRP)-conjugated secondary antibody (Santa Cruz, CA) and visualized with enhanced chemiluminescence (ECL)-detecting reagents (ComWin Biotech Co., Beijing, China).

cleaved caspase-9 = assay: Western blot in HepG2 cells; format: cell-based; details: 1 µM, 24 h, compared with SAHA
Description: as §3

phosphorylated cdc2 = assay: Western blot in HepG2 cells; format: cell-based; details: 1 µM, 24 h, compared with SAHA
Description: as §3

[4] = more potent than SAHA, ratio of IC50 values

T1 sequence (Q13547 whole entry): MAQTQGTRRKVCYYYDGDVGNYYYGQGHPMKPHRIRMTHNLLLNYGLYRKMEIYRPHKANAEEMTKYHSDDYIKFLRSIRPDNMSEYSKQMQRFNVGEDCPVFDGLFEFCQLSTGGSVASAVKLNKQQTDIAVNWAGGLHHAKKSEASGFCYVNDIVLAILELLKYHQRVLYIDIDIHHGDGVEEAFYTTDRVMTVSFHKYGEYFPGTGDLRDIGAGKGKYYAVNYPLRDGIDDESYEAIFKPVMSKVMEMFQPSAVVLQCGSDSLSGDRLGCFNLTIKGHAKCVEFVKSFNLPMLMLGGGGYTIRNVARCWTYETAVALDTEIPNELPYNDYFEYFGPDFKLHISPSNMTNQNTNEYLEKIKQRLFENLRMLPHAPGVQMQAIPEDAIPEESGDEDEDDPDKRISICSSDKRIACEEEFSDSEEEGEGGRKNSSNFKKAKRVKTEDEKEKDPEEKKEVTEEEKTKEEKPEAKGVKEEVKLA

Structure (SMILES): Nc1ccccc1NC(=O)c1ccc(N(CCCl)CCCl)cc1 [NA, N-(2-Aminophenyl)-4-(bis(2-chloroethyl)amino)benzamide]
- IC50 (HDAC1; n ≥ 2, SD <10% of the mean, read-out: Enzyme inhibitory activity IC50, HDAC1): 0.0952 µM
- HDAC1 selectivity versus HDAC2 (HDAC1; ratio of IC50 values, HDAC1 versus HDAC2): 2.74 fold
- HDAC1 selectivity versus HDAC3 (HDAC1; ratio of IC50 values, HDAC1 versus HDAC3): 2.69 fold
- IC50 (HDAC7): > 5 µM
- IC50 (HDAC2): 0.261 µM
- IC50 (HDAC3): 0.256 µM
- IC50 (HDAC4): > 5 µM
- IC50 (HDAC6): > 5 µM
- IC50 (HDAC8): > 5 µM
- IC50 (HDAC9): > 5 µM
- IC50 (A2780 cells): 2.66 µM
- Potency relative to SAHA, A2780 cell growth inhibition (A2780 cells; [4]): 10.3 fold
- IC50 (A549 cells): 14.7 µM
- IC50 (Calu-3 cells): 5.81 µM
- IC50 (Colo205 cells): 33.8 µM
- IC50 (HepG2 cells [1]; Homo sapiens, HepG2, 48 h, read-out: Antiproliferative activity IC50, HepG2): 1.73 µM
- Potency relative to SAHA, HepG2 cell growth inhibition (HepG2 cells [1]; [4]): 11.3 fold
- IC50 (LoVo cells): 10.4 µM
- IC50 (MCF-7 cells): 18.7 µM
- IC50 (MDA-MB-231 cells): 7.64 µM
- IC50 (MDA-MB-468 cells): 6.33 µM
- IC50 (MKN45 cells): 14.3 µM
- IC50 (PNAC-1 cells): 8.52 µM
- IC50 (SKOV3 cells): 3.91 µM
- IC50 (U937 cells): 1.21 µM
- HepG2 cells at the G2/M phase (HepG2 cells [2]; 1 µM): 25.98%
- HepG2 cell population at the G0/G1 phase (HepG2 cells [2]; 1 µM): 48.64%
- HepG2 cells at the G2/M phase (HepG2 cells [2]; 3 µM): 35.05%
- HepG2 cell population at the G0/G1 phase (HepG2 cells [2]; 3 µM): 41.61%
- HepG2 cells at the G2/M phase (HepG2 cells [2]; 9 µM): 38.89%
- HepG2 cell population at the G0/G1 phase (HepG2 cells [2]; 9 µM): 37.19%
- Percentage of apoptotic HepG2 cells (HepG2 cells [3]; 1 µM): 9.15%
- Percentage of apoptotic HepG2 cells (HepG2 cells [3]; 3 µM): 18.07%
- Percentage of apoptotic HepG2 cells (HepG2 cells [3]; 9 µM): 37.39%
- Protein expression level of cleaved caspase-3 (cleaved caspase-3): remarkedly increased
- Protein expression level of cleaved caspase-9 (cleaved caspase-9): remarkedly increased
- Phosphorylation of cdc2 (phosphorylated cdc2): up-regulated

Structure (SMILES): O=C(CCCCCCC(=O)Nc1ccccc1)NO [SAHA, Suberoylanilide hydroxamic acid, reference compound]
- IC50 (A2780 cells): 27.3 µM
- Effect on the population of HepG2 cells at the G0/G1 phase (in words) (HepG2 cells [2]; 1, 3, and 9 µM): no significant effects
- Percentage of apoptotic HepG2 cells (HepG2 cells [3]; 1 µM): 4.52%
- Percentage of apoptotic HepG2 cells (HepG2 cells [3]; 3 µM): 6.24%
- Percentage of apoptotic HepG2 cells (HepG2 cells [3]; 9 µM): 20.32%
